Our source for the IC50 and GI50 values is patent US20240408169A1 (priority 2023, published 2024).

pIC50: −log10 of the molar value. *1 amine or outer side, *2 acyl side, *3 side chain or, on linkers, in order; H or OH if unused. Where a SMILES comes first, the peptide text is derived from it. Bridges are numbered along the chain shown (N, C = ends). [ ]: non-standard residue; d: D form. The star is where a group is joined. X10 = CC(C)C(=O)N1[C@H]2COC[C@@H]1C=C(c1ccc(Cl)cc1C[C@@H](C(=O)[*:2])N(C)[*:1])C2; X110 = CC(C)C(=O)N1[C@H]2CC[C@@H]1C=C(c1ccc(Cl)cc1C[C@@H](C(=O)[*:2])N(C)[*:1])C2; X7 = CC(C)C(=O)N1[C@H]2CC[C@@H]1C=C(c1ccc(F)cc1C[C@@H](C(=O)[*:2])N(C)[*:1])C2; X82 = CN([C@@H](Cc1cc(Cl)ccc1-c1cnn(S(C)(=O)=O)c1)C(=O)[*:2])[*:1]; X18 = CC(=O)N1CCC(=Cc2ccc(Cl)cc2C[C@@H](C(=O)[*:2])N(C)[*:1])CC1; X60 = CN([C@@H](Cc1cc(Cl)ccc1-c1cnn2ccncc12)C(=O)[*:2])[*:1]; X76 = CN([C@@H](Cc1cc(Cl)ccc1-c1cnn2cccnc12)C(=O)[*:2])[*:1]; NMehhhLys(Me) = CN([C@@H](CCCCCCCN(C)[*:3])C(=O)[*:2])[*:1]; NMe(hhhLys) = CN([C@@H](CCCCCCCN[*:3])C(=O)[*:2])[*:1]; X17 = CN([C@@H](Cc1cc(Cl)cnc1N1CCOCC1)C(=O)[*:2])[*:1]; Oxane2carbonyl(2R-CF3) = O=C([C@@]1(C(F)(F)F)CCCCO1)*; X33 = CN([C@@H](Cc1cc(Cl)cc2c1OCCO2)C(=O)[*:2])[*:1]; cBuCO(3,3-F2-1-CF3) = O=C(C1(C(F)(F)F)CC(F)(F)C1)*; Pro(trans-4-F) = O=C(O)[C@@H]1C[C@@H](F)CN1; Gly(cPr) = N[C@H](C(=O)O)C1CC1

One experiment addresses T1, CyclinA2/CDK2 (Homo sapiens, UniProt P20248).
T1 construct: purchased CRELUX Protein Services
The experiment in a line: Fluorescence Polarization (FP) competitive binding assay, Cyclin A2/Cdk2.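 Further: plates equilibrated two hours at room temperature before polarization reading, IC50 fitted from eight-concentration compound titration curves.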 Conditions: 8 nM Cyclin A2/Cdk2, 2 nM FAM probe; average of 2-3 independent experiments; read-out: Cyclin A FP IC50. In general terms: Fluorescence polarisation rises when a labelled molecule tumbles more slowly, as on binding a larger partner.

The test system of a further experiment is NCI-H1048 cells. The experiment in a line: MTT proliferation assay, NCI-H1048.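 Further: Dose-response in 96-well plates over 8 or 10 concentration points, with exposure spanning 3-4 cell doublings.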 In kind it is cell-based. Conditions: 5 days compound exposure, 1:3 serial dilution starting at 10 μM.
A further experiment deals with T2, CyclinB1/CDK1 (Homo sapiens, UniProt P14635).
T2 construct: purchased Eurofins, discovery 14-450
Nature of the experiment: Fluorescence Polarization (FP) competitive binding assay, Cyclin B1/Cdk1.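 Further: fluorescence polarization read after equilibration at room temperature, with IC50 taken from serially diluted dose-response curves.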 The note with it: 10 nM Cyclin B1/Cdk1, 2 nM FAM probe; average of 2-3 independent experiments; read-out: Cyclin B FP IC50.

For another experiment, the target named is T3, CyclinE1/CDK2 (Homo sapiens, UniProt P24864).
T3 construct: purchased Eurofins, discovery 14-475
Nature of the experiment: Fluorescence Polarization (FP) competitive binding assay, Cyclin E1/Cdk2.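 Further: readings taken after two-hour equilibration at room temperature in HEPES buffer with NaCl, DTT, NP-40 and BSA, IC50 fitted from eight-concentration serial dilution series.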 Conditions: 10 nM Cyclin E1/Cdk2, 2 nM FAM probe; average of 2-3 independent experiments; read-out: Cyclin E FP IC50.

For a further experiment, the system named is OVCAR3 cells. Nature of the experiment: MTT proliferation assay, OVCAR3.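 Further: compound given as an 8- or 10-point series, one day after plating, with exposure covering roughly 3-4 cell doublings.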 In kind it is cell-based. The note with it: 5 days compound exposure, 1:3 serial dilution starting at 10 μM.
The next experiment concerns WI-38 cells. The experiment in a line: MTT proliferation assay, WI-38.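 Further: Eight- or ten-point dilution series, with exposure length chosen to span about three to four cell doublings.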 In kind it is cell-based. The note with it: 3 days compound exposure, 1:3 serial dilution starting at 10 μM. (In general: Formazan colour is commonly taken as a measure of viable cells.)

`CC(=O)N1CC=C(c2ccc(Cl)cc2C[C@H]2C(=O)NCCC=CCCC[C@H](N(C)C(=O)[C@@H](NC(=O)[C@@H]3C[C@@H](F)CN3C(=O)C3(C(F)(F)F)CC(F)(F)C3)C3CC3)C(=O)N[C@@H](CC(C)C)C(=O)N2C)CC1` [Example 286]: the pIC50 (usually the IC50 on a negative log10 scale, so that one unit is a factor of ten) at CyclinA2/CDK2 was 7.10; at CyclinB1/CDK1, 7.70; at CyclinE1/CDK2, 5.40. Further, the GI50 (usually the concentration that inhibits growth by half) in the experiment on NCI-H1048 cells came to 60 nM; in the experiment on OVCAR3 cells, 50 nM; in the experiment on WI-38 cells, 6500 nM.
Consider `CC(=O)N1CCC(=Cc2ccc(Cl)cc2C[C@H]2C(=O)NCCCCCCC[C@H](N(C)C(=O)[C@@H](NC(=O)[C@@H]3C[C@@H](F)CN3C(=O)C3(C(F)(F)F)CC(F)(F)C3)C3CC3)C(=O)N[C@@H](CC(C)C)C(=O)N2C)CC1` [Example 288] ({cBuCO(3,3-F2-1-CF3)}-[Pro(trans-4-F)][Gly(cPr)][NMe(hhhLys)]L[X18]; lactam 3-C), for which the pIC50 is 7.52 at CyclinA2/CDK2, 7.70 at CyclinB1/CDK1 and 6.44 on CyclinE1/CDK2. In addition, the GI50 in the experiment on NCI-H1048 cells came out at 20 nM; with OVCAR3 cells, 20 nM; in the experiment on WI-38 cells, 13800 nM.
With `CC(=O)N1CCC(=Cc2ccc(Cl)cc2C[C@H]2C(=O)N(C)CCCCCCC[C@H](N(C)C(=O)[C@@H](NC(=O)[C@@H]3C[C@@H](F)CN3C(=O)C3(C(F)(F)F)CC(F)(F)C3)C3CC3)C(=O)N[C@@H](CC(C)C)C(=O)N2C)CC1` [Example 289] ({cBuCO(3,3-F2-1-CF3)}-[Pro(trans-4-F)][Gly(cPr)][NMehhhLys(Me)]L[X18]; lactam 3-C), the results for the pIC50 on CyclinA2/CDK2, on CyclinB1/CDK1 and at CyclinE1/CDK2 were 7.52, 7.70 and 6.49, respectively. For the same compound, the values for the concentration for 50% growth inhibition (GI50) in the experiment with NCI-H1048 cells, in the experiment with OVCAR3 cells and in the experiment on WI-38 cells were 10 nM, 10 nM and 3780 nM, respectively.
With `CC(C)C[C@@H]1NC(=O)[C@@H](N(C)C(=O)[C@@H](NC(=O)[C@@H]2C[C@@H](F)CN2C(=O)C2(C(F)(F)F)CC(F)(F)C2)C2CC2)CCCCCCCN(C)C(=O)[C@H](Cc2cc(Cl)ccc2-c2cnn3cccnc23)N(C)C1=O` [Example 297] ({cBuCO(3,3-F2-1-CF3)}-[Pro(trans-4-F)][Gly(cPr)][NMehhhLys(Me)]L[X76]; lactam 3-C), the values for the negative-log IC50 (pIC50) on CyclinA2/CDK2, on CyclinB1/CDK1 and at CyclinE1/CDK2 were 7.40, 7.70 and 5.90, respectively. Also, the GI50 turned out to be 20 nM in the experiment on NCI-H1048 cells, 30 nM in the experiment with OVCAR3 cells and 9150 nM in the experiment with WI-38 cells.
`CC(C)C[C@@H]1NC(=O)[C@@H](N(C)C(=O)[C@@H](NC(=O)[C@@H]2C[C@@H](F)CN2C(=O)[C@@]2(C(F)(F)F)CCCCO2)C2CC2)CCCCCCCN(C)C(=O)[C@H](Cc2cc(Cl)ccc2-c2cnn(S(C)(=O)=O)c2)N(C)C1=O` [Example 299] ({Oxane2carbonyl(2R-CF3)}-[Pro(trans-4-F)][Gly(cPr)][NMehhhLys(Me)]L[X82]; lactam 3-C): the negative-log IC50 (pIC50) on CyclinA2/CDK2 was 7.70; on CyclinB1/CDK1, 7.70; at CyclinE1/CDK2 it was 6.89. The results for the GI50 with NCI-H1048 cells, in the experiment on OVCAR3 cells and with WI-38 cells were 10 nM, 10 nM and 14300 nM, respectively.
`CC(C)C[C@@H]1NC(=O)[C@@H](N(C)C(=O)[C@@H](NC(=O)[C@@H]2C[C@@H](F)CN2C(=O)C2(C(F)(F)F)CC(F)(F)C2)C2CC2)CCCCCCCN(C)C(=O)[C@H](Cc2cc(Cl)ccc2-c2cnn3ccncc23)N(C)C1=O` [Example 305] ({cBuCO(3,3-F2-1-CF3)}-[Pro(trans-4-F)][Gly(cPr)][NMehhhLys(Me)]L[X60]; lactam 3-C): the negative-log IC50 (pIC50) is 7.30 at CyclinA2/CDK2, 7.70 at CyclinB1/CDK1 and 5.76 at CyclinE1/CDK2. In addition, the GI50 in the experiment with NCI-H1048 cells was 10 nM; with OVCAR3 cells it was 20 nM; in the experiment with WI-38 cells, 19200 nM.
In the case of `CC(C)C[C@@H]1NC(=O)[C@@H](N(C)C(=O)[C@@H](NC(=O)[C@@H]2C[C@@H](F)CN2C(=O)C2(C(F)(F)F)CC(F)(F)C2)C2CC2)CCCCCCCNC(=O)[C@H](Cc2cc(Cl)ccc2C2=C[C@H]3CC[C@@H](C2)N3C(=O)C(C)C)N(C)C1=O` [Example 313] ({cBuCO(3,3-F2-1-CF3)}-[Pro(trans-4-F)][Gly(cPr)][NMe(hhhLys)]L[X110]; lactam 3-C), the pIC50 was 7.70 at CyclinA2/CDK2, 7.70 at CyclinB1/CDK1 and 6.19 at CyclinE1/CDK2. The GI50 with NCI-H1048 cells turned out to be 10 nM; with OVCAR3 cells, 10 nM; in the experiment with WI-38 cells, 36600 nM.
In the case of `CC(C)C[C@@H]1NC(=O)[C@@H](N(C)C(=O)[C@@H](NC(=O)[C@@H]2C[C@@H](F)CN2C(=O)C2(C(F)(F)F)CC(F)(F)C2)C2CC2)CCCCCCCN(C)C(=O)[C@H](Cc2cc(F)ccc2C2=C[C@H]3CC[C@@H](C2)N3C(=O)C(C)C)N(C)C1=O` [Example 318] ({cBuCO(3,3-F2-1-CF3)}-[Pro(trans-4-F)][Gly(cPr)][NMehhhLys(Me)]L[X7]; lactam 3-C), the pIC50 was 7.70 on CyclinA2/CDK2, 7.70 on CyclinB1/CDK1 and 6.55 at CyclinE1/CDK2. The concentration for 50% growth inhibition (GI50) with NCI-H1048 cells came out at 10 nM; with OVCAR3 cells, 10 nM; in the experiment with WI-38 cells it was 9920 nM.
Turning to `CC(C)C[C@@H]1NC(=O)[C@@H](N(C)C(=O)[C@@H](NC(=O)[C@@H]2C[C@@H](F)CN2C(=O)C2(C(F)(F)F)CC(F)(F)C2)C2CC2)CCCCCCCN(C)C(=O)[C@H](Cc2cc(Cl)cnc2N2CCOCC2)N(C)C1=O` [Example 320] ({cBuCO(3,3-F2-1-CF3)}-[Pro(trans-4-F)][Gly(cPr)][NMehhhLys(Me)]L[X17]; lactam 3-C), the pIC50 at CyclinA2/CDK2 is 7.52; on CyclinB1/CDK1, 7.70; on CyclinE1/CDK2, 5.84. Moreover, the GI50 in the experiment on NCI-H1048 cells turned out to be 10 nM; with OVCAR3 cells it was 20 nM; with WI-38 cells it was 15500 nM.
`CC(C)C[C@@H]1NC(=O)[C@@H](N(C)C(=O)[C@@H](NC(=O)[C@@H]2C[C@@H](F)CN2C(=O)C2(C(F)(F)F)CC(F)(F)C2)C2CC2)CCCCCCCN(C)C(=O)[C@H](Cc2cc(Cl)cc3c2OCCO3)N(C)C1=O` [Example 321] ({cBuCO(3,3-F2-1-CF3)}-[Pro(trans-4-F)][Gly(cPr)][NMehhhLys(Me)]L[X33]; lactam 3-C): the pIC50 at CyclinA2/CDK2 was 7.70; at CyclinB1/CDK1, 7.70; at CyclinE1/CDK2 it was 7.00. Further, the GI50 with NCI-H1048 cells came to 10 nM; with OVCAR3 cells, 10 nM; in the experiment on WI-38 cells it was 89800 nM.
For `CC(C)C[C@@H]1NC(=O)[C@@H](N(C)C(=O)[C@@H](NC(=O)[C@@H]2C[C@@H](F)CN2C(=O)C2(C(F)(F)F)CC(F)(F)C2)C2CC2)CCCCCCCNC(=O)[C@H](Cc2cc(Cl)ccc2C2=C[C@H]3COC[C@@H](C2)N3C(=O)C(C)C)N(C)C1=O` [Example 327] ({cBuCO(3,3-F2-1-CF3)}-[Pro(trans-4-F)][Gly(cPr)][NMe(hhhLys)]L[X10]; lactam 3-C), the pIC50 at CyclinA2/CDK2 is 7.70; at CyclinB1/CDK1 it was 7.70; at CyclinE1/CDK2 it was 6.40. Also, the concentration for 50% growth inhibition (GI50) worked out at 10 nM in the experiment on NCI-H1048 cells, 10 nM with OVCAR3 cells and 83900 nM with WI-38 cells.
As for `CC(C)C[C@@H]1NC(=O)[C@@H](N(C)C(=O)[C@@H](NC(=O)[C@@H]2C[C@@H](F)CN2C(=O)C2(C(F)(F)F)CC(F)(F)C2)C2CC2)CCCCCCCNC(=O)[C@H](Cc2cc(Cl)cc3c2OCCO3)N(C)C1=O` [Example 330] ({cBuCO(3,3-F2-1-CF3)}-[Pro(trans-4-F)][Gly(cPr)][NMe(hhhLys)]L[X33]; lactam 3-C), the values for the negative logarithm of the IC50 (pIC50) on CyclinA2/CDK2, on CyclinB1/CDK1 and at CyclinE1/CDK2 were 7.52, 7.70 and 7.00, respectively. The 50% growth inhibitory concentration (GI50) stood at 10 nM with NCI-H1048 cells, 10 nM in the experiment on OVCAR3 cells and 18500 nM with WI-38 cells.
